How the values were obtained:
[1] = tested on: C2C12, a mouse muscle (myoblast) cell line; experiment: MTT assay, cytotoxicity of 2′-FL in C2C12; format: cell-based; conditions: C2C12, 2′-FL 100, 200, 400 μM, 24 hours, vs control group
Method: C2C12, a mouse muscle (myoblast) cell line, was cultured at 37° C. in the presence of 5% CO2 using a medium containing 90% DMEM, 10% FBS, and 10 unit/ml penicillin-streptomycin. In order to confirm the cytotoxicity of 2′-FL, the C2C12 cell line was seeded in each well of a 96-well plate at a concentration of 5×10^4 cells/well, cultured for 24 hours, and then treated with 2′-FL at various concentrations (100, 200, 400 μM) for 24 hours. Then, the medium was removed and a growth medium and 0.5 mg/ml of a diluted MTT solution were aliquoted in an amount of […] and incubated in a CO2 incubator. After 2 hours, the MTT reagent was removed, formazin was dissolved in DMSO (dimethyl sulfoxide), and absorbance was measured at 540 nm.

[2] = tested on: MuRF1 gene; experiment: qPCR of muscular atrophy gene MuRF1 after dexamethasone; format: cell-based, mouse; conditions: 2′-FL 100 or 200 μM, dexamethasone 400 μM 24 hours, vs dexamethasone group (Veh)
[3] = tested on: C2C12 myotubes treated with dexamethasone; experiment: Protection against dexamethasone-induced differentiation inhibition (myotube length and diameter); format: cell-based, mouse; conditions: 2′-FL high concentration (200 μM), dexamethasone 400 μM 24 hours, vs dexamethasone group (Veh)
Method: (§1) Dexamethasone, a synthetic glucocorticoid, is known to decrease the rate of protein synthesis and increase the rate of protein degradation in muscles in vivo or in cultured cells. Accordingly, 1 hour after treatment of C2C12, which had been differentiated, with 2′-FL, C2C12 was treated with dexamethasone at a concentration of 400 μM for 24 hours to determine the muscular atrophy prevention effect of 2′-FL in a cell model. Meanwhile, in order to evaluate the prophylactic effect of the differentiation inhibition caused by treatment with dexamethasone, the length and diameter of myotubes were measured after treatment with dexamethasone.

[4] = tested on: differentiated C2C12 treated with dexamethasone, mitochondria; experiment: Protection against dexamethasone-induced mitochondrial function inhibition; format: cell-based, mouse; conditions: 2′-FL 100 or 200 μM, dexamethasone 400 μM 24 hours, vs dexamethasone group
Method: Dexamethasone, a synthetic glucocorticoid, is known to decrease the rate of protein synthesis and increase the rate of protein degradation in muscles in vivo or in cultured cells. Accordingly, 1 hour after treatment of C2C12, which had been differentiated, with 2′-FL, C2C12 was treated with dexamethasone at a concentration of 400 μM for 24 hours to determine the muscular atrophy prevention effect of 2′-FL in a cell model. After treatment with dexamethasone, mtDNA expression and mitochondrial density were measured. […] In FIG. 6, 2FLL represents a group treated with 2′-FL at 100 μM, and 2FLH represent a group treated with 2′-FL at 200 μM.

[5] = tested on: NRF2 mRNA; experiment: qPCR of mitochondrial biosynthesis gene NRF2; format: cell-based, mouse; conditions: C2C12, 2′-FL at a high concentration, vs control group
Text: (§2) Mitochondria are organelles that have a main function of generating ATP, which is a form of intracellular energy, and perform various intracellular functions such as metabolism, signal transduction, apoptosis, and differentiation. Metabolic adaptation in skeletal muscle is achieved by the regulation of various genes, and PGC-1α (peroxisome proliferator-activated receptor-γ coactivator-1α) transcriptional cofactor is known to perform the most important role therefor. Accordingly, the mRNA expression changes of PGC-1α and the downstream gene thereof, NRF2, were determined upon treatment with 2′-FL.
(§3) For this purpose, CDNA was synthesized from RNA extracted from C2C12 cells using ReverTra Ace qPCR RT Kit (TOYOBO). In order to increase the efficiency of the reaction, the RNA was pre-heated at 65° C. for 5 minutes and then immediately stored on ice. Then, a total of 8 μl of reagent was prepared from 2 μl of 4×DN master mix containing a gDNA remover, 0.5 μg of mRNA, and nuclease-free water, and then was amplified at 37° C. for 5 minutes.
(§4) The reacted reagent was added with a 5×RT master mix, and amplified at 37° C. for 15 minutes, at 50° C. for 5 minutes, and at 98° C. for 5 minutes to synthesize cDNA. Then, the synthesized cDNA was subjected to qPCR using Thunderbird TMSYBR qPCR mix reagent (TOYOBO). The gene expression level was analyzed with the iQ5 Cycler System (Bio-Rad). […]

[6] = tested on: differentiated C2C12 treated with dexamethasone; experiment: Protection against dexamethasone-induced growth inhibition (trypan blue cell count); format: cell-based, mouse; conditions: 2′-FL high concentration (200 μM) 1 hour before dexamethasone 400 μM for 24 hours, vs dexamethasone group (Veh)
Method: as §1, with “In” for “Meanwhile, in”, “growth” for “the differentiation”, “dexamethasone, C2C12 was treated with 2′-FL and dexamethasone in” for “dexamethasone,”, “same manner as above, the cells were removed with trypsin,” for “length”, “the number” for “diameter”, “the cells was counted using trypan blue staining.” for “myotubes were measured after treatment with dexamethasone.”

[7] = tested on: C2C12 myotubes, MHC; experiment: MHC expression analysis by immunocytochemical staining (myocyte differentiation); format: cell-based, mouse; conditions: C2C12, 2′-FL 100 and 200 μM, 24 hours, vs control group
Method: In order to differentiate mouse myoblasts into myotubes, the mouse myoblasts were seeded at a concentration of 4×10^5 cells/well in each well of a 6-well plate, cultured for 24 hours until confluence reached 100% and then 2% horse serum was added thereto. Then, the mouse myoblasts were differentiated for 6 days while exchanging the DMEM containing 2% horse serum with fresh DMEM every 2 days. Immunocytochemical staining was performed to determine the effect of treatment with 2′-FL on myocyte differentiation. Specifically, C2C12 was treated with 2′-FL at different concentrations (100 and 200 μM) for 24 hours, and then fixed with a 4% paraformaldehyde solution for 10 minutes. The fixed cells were washed with PBS containing 0.1% Triton X-100 and then reacted in 5% BSA solution for 1 hour. The cells were washed 3 times with 1×PBS again and then were allowed to react with an MHC antibody (Cell signaling) at room temperature overnight. After the reaction was completed, the cells were washed 3 times with PBS and reacted with Alexa Fluor 488 goat anti-rabbit IgG at room temperature for 1 hour, and then nuclei thereof were stained with a horchest solution and observed under a fluorescence microscope. At this time, the AMPK agonist A-769662 (1 μM) was used as a positive control.

[8] = tested on: C57BL/6 mice; experiment: Dexamethasone-induced muscular atrophy mouse model: grip strength test; format: in vivo; conditions: 2′-FL 200 or 400 mg/kg oral, dexamethasone 10 mg/kg i.p., day before end of experiment, vs Veh
Method: (§5) In order to determine whether or not 2′-FL has a prophylactic effect against muscular atrophy in an animal model, 2′-FL was orally administered at a concentration of 200 or 400 mg/kg to 7-week-old male C57BL/6 mice for 7 days, followed by intraperitoneal injection of dexamethasone known as a drug inducing muscular atrophy at a concentration of 10 mg/kg, and at the same time, oral administration of 2′-FL for 2 weeks. At this time, the experiment was conducted on mouse experimental groups, namely, a Nor group that received intraperitoneal injection of saline and distilled water, a that received intraperitoneal injection of Veh group dexamethasone and was orally administered distilled water, and a 2FLL group and a 2FLH group that received intraperitoneal injection of dexamethasone and was orally administered 2′-FL at 200 mg/kg and 400 mg/kg, respectively. All experimental animals were subjected to a grip strength test using a grip strength meter (Jeongdo Bio & Plant Co., Ltd.) the day before the end of the experiment.

[9] = tested on: C57BL/6 mice, muscle tissue; experiment: Dexamethasone-induced muscular atrophy mouse model: H&E muscle histology and muscle tissue weight; format: in vivo; conditions: 2FLH (2′-FL 400 mg/kg oral), dexamethasone 10 mg/kg i.p., vs Veh
Method: as §5, with “The mouse muscle tissue was stained” for “All experimental animals were subjected to a grip strength test”, “using” for “using a grip strength meter (Jeongdo Bio & Plant Co., Ltd.)”, “H&E method and then histological morphology was observed.” for “day before the end of the experiment.”

[10] = tested on: atrogin-1 protein; experiment: Dexamethasone-induced muscular atrophy mouse model: atrogin-1 immunoblotting of muscle tissue; format: in vivo; conditions: 2′-FL at a high concentration (400 mg/kg oral), dexamethasone 10 mg/kg i.p., vs Veh
Method: In order to determine whether or not 2′-FL has a prophylactic effect against muscular atrophy in an animal model, 2′-FL was orally administered at a concentration of 200 or 400 mg/kg to 7-week-old male C57BL/6 mice for 7 days, followed by intraperitoneal injection of dexamethasone known as a drug inducing muscular atrophy at a concentration of 10 mg/kg, and at the same time, oral administration of 2′-FL for 2 weeks. At this time, the experiment was conducted on mouse experimental groups, namely, a Nor group that received intraperitoneal injection of saline and distilled water, a that received intraperitoneal injection of Veh group dexamethasone and was orally administered distilled water, and a 2FLL group and a 2FLH group that received intraperitoneal injection of dexamethasone and was orally administered 2′-FL at 200 mg/kg and 400 mg/kg, respectively. Proteins were extracted by adding a Halt™ protease inhibitor to lysis buffer (10 mM Tris-HCl, pH 7.5, 1% NP-40, 0.1% sodium deoxycholate, 0.1% SDS, 150 mM NaCl, and 1 mM EDTA) in order to confirm protein expression using mouse muscle tissue and then immunoblotting was performed. As primary antibodies, anti-α-tubulin (1:1000) and anti-atrogin-1 (1:1000) were used. The resulting image of immunoblotting was analyzed using a ChemiDoc™ touch imaging system (Bio-Rad) and Image Lab 5.2 software (Bio-Rad).

[11] = tested on: C57BL/6 mice; experiment: Dexamethasone-induced muscular atrophy mouse model: body weight and plasma liver function test; format: in vivo; conditions: dexamethasone 10 mg/kg i.p., vs Veh
Method: as §5, with “respectively.” for “respectively. All experimental animals were subjected to a grip strength test using a grip strength meter (Jeongdo Bio & Plant Co., Ltd.) the day before the end of the experiment.”

[12] = tested on: PGC-1α mRNA; experiment: qPCR of mitochondrial biosynthesis gene PGC-1α; format: cell-based, mouse; conditions: C2C12, 2′-FL at a high concentration, vs control group
Text: as §2, §3, §4

[13] = tested on: differentiated C2C12, mitochondria; experiment: Mitochondrial function: mtDNA expression and mitochondrial density (MitoTracker); format: cell-based, mouse; conditions: differentiated C2C12, 2′-FL 100 and 200 μM, 24 hours, vs control group
Method: Mitochondria have mitochondrial DNA (mtDNA) that is isolated from their own nuclear DNA. […] Such damage to mtDNA causes a decrease in mitochondrial function, leading to a decrease in synthesis of ATP, which is an energy molecule required for cellular a decrease in the ability to regulate activity, and homeostasis in vivo, which eventually causes the onset of various diseases. Accordingly, mtDNA expression and mitochondrial density upon treatment with 2′-FL were measured. […] C2C12 was treated with 2′-FL at different concentrations (100 and 200 μM) for 24 hours, was washed with PBS, added with a medium containing 200 nM of a MitoTracker green probe and cultured for 30 minutes. Then, the portion bound to the MitoTracker green probe was quantified with SpectraMax that absorbs a wavelength of 490 nm and emits a wavelength of 516 nm to measure the density of mitochondria. At this time, the AMPK agonist A-769662 (1 μM) was used as a positive control.

[14] = tested on: atrogin-1 gene; experiment: qPCR of muscular atrophy gene atrogin-1 after dexamethasone; format: cell-based, mouse; conditions: 2′-FL 100 or 200 μM, dexamethasone 400 μM 24 hours, vs dexamethasone group (Veh)

With 2′-fucosyllactose [2′-FL] the cell viability [1] was “no difference in cell viability”, the MuRF1 gene expression [2] was “significantly decreased” and the diameter of myotubes [3] was “significantly increased”. The length of myotubes [3] was “significantly increased”, the “mitochondrial function (mtDNA expression and mitochondrial density)” value [4] was “significantly increased” and the “expression of NRF2 mRNA” value [5] was “significantly increased”. For the same substance, the number of cells [6] was “significantly increased”, the MHC expression [7] was “increased” and the “length and thickness of myotubes” value [7] was “increased”. For the same substance, the grip strength [8] was “significantly increased”, the “muscular atrophy morphological characteristics (decreased muscle bundle size, imbalance in nuclear location), H&E” value [9] was “ameliorated” and the “weight of extensor digitorum longus” value [9] was “significantly increased”. For the same substance, the “weight of gastrocnemius muscle” value [9] was “significantly increased”, the “weight of muscle tissue (unspecified)” value [9] was “significantly increased” and the “expression of atrogin-1 protein in muscle tissue” value [10] was “significantly decreased”. The mouse weight ([11]; 2FLH (2′-FL 400 mg/kg oral), 3 weeks) was “increased”, the “plasma GOT activity” value ([11]; 2′-FL 200 or 400 mg/kg oral) was “lowered” and the “plasma GPT activity” value ([11]; 2′-FL 200 or 400 mg/kg oral) was “lowered”. For the same substance, the “expression of PGC-1α mRNA” value [12] was “significantly increased”, the “mitochondrial density measured using the MitoTracker” value [13] was “increased in a concentration-dependent manner” and the mtDNA expression [13] was “significantly increased in a concentration-dependent manner”. The atrogin-1 gene expression [14] was “significantly decreased”.
